In BigSolDB 2.1:

Nc1nc(N)nc(NC2CC2)n1
solubility (mole fraction)
Settings	278.15 K	283.15 K	288.15 K	293.15 K	298.15 K	303.15 K	308.15 K	313.15 K	318.15 K	323.15 K
in n-butanol	–	0.00073	0.000871	0.00104	0.00126	0.0015	0.00179	0.00217	0.00262	0.0031
in n-heptanol	–	0.000235	0.000322	0.000422	0.000556	0.000737	0.000957	0.00124	0.00162	0.00213
in n-hexanol	–	0.000534	0.000661	0.000816	0.001	0.00123	0.00151	0.00185	0.00227	0.00279
in n-pentanol	–	0.000671	0.000818	0.000981	0.00119	0.00142	0.00171	0.00204	0.00245	0.00291
in n-propanol	–	0.000809	0.000927	0.00113	0.00136	0.00163	0.00191	0.00237	0.00281	0.00327
in propionic acid	0.00472	0.00562	0.00697	0.00847	0.0101	0.0123	0.0148	0.0177	0.0212	–
in sec-butanol	–	0.000301	0.00038	0.00048	0.000581	0.000686	0.000846	0.000995	0.0012	0.00147
in water	–	0.000931	0.00108	0.00125	0.00144	0.00166	0.00193	0.00221	0.00254	0.00293
